Tested on: VE-cadherin and Claudin-5 in pHUVECs
Assay: Immunofluorescence of VE-cadherin and Claudin-5 junctional staining in pHUVECs treated with COVID-19 patient plasma
Assay type: cell-based, human
Details: co-treatment with moderate or severe COVID-19 plasma, six hours

Nangibotide
disruption of the EC barrier, as examined through junctional protein expression (VE-cadherin, Claudin-5): could maintain junctional protein expression
